Test results published in patent US11827628B2, “Compositions and methods for inhibition of the JAK pathway” (Rigel Pharmaceuticals, Inc., priority 2005, dated 2023).
Like-named read-outs stand apart in the source and are kept apart here. Values belong to the molecule of their own block, whether it stands above or below them.

Key:
[1] = system: IL-4 stimulated expression of CD23 in human Ramos B cells (JAK-1 and JAK-3); test: Assay for Ramos B-Cell Line Stimulated with IL-4 (CD23 upregulation, FACS); type: cell-based; settings: read-out: IC50, Example 41
Procedure, shortened: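 Log-phase Ramos cells, 1 h compound pre-incubation at 37 °C; IL-4 50 units/mL final, 20-24 h; CD23-PE stain, FACS; IC50.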

Primary human T-cells = test: Primary Human T-Cell Proliferation Assay Stimulated with IL-2 (CellTiter-Glo); type: cell-based; settings: read-out: IC50, Example 42
Excerpt: The activity of the active compounds of the invention may further be characterized by assaying the effect of the 2,4-substituted pyrimidinediamine compounds described herein on the proliferative response of primary human T-cells. In this assay, primary human T-cells derived from peripheral blood and pre-activated through stimulation of the T-cell receptor and CD28, proliferate in culture in response to the cytokine Interleukin-2 (IL-2). This proliferative response is dependent on the activation of JAK1 and JAK3 tyrosine kinases, which phosphorylate and activate the transcription factor Stat-5. The primary human T-cells are incubated with the 2,4-substituted pyrimidinediamine compounds in the presence of IL-2 for 72 hours and at the assay endpoint intracellular ATP concentrations are measured to assess cell viability. A reduction in cell proliferation compared to control conditions is indicative of inhibition of the JAK kinase pathway. An exemplary assay of this type is described in greater detail in Example 42
Primary human T-cells derived from peripheral blood and pre-activated through stimulation of the T-cell receptor and CD28, proliferate in vitro in response to the cytokine Interleukin-2 (IL-2). This proliferative response is dependent on the activation of JAK-1 and JAK-3 tyrosine kinases, which phosphorylate and activate the transcription factor Stat-5.
Human primary T cells were prepared as follows. Whole blood was obtained from a healthy volunteer, mixed 1:1 with PBS, layered on to Ficoll Hypaque (Amersham Pharmacia Biotech, Piscataway, NJ, Catalog #17-1440-03) in 2:1 blood/PBS:ficoll ratio and centrifuged for 30 min at 4° C. at 1750 rpm. The lymphocytes at the serum: ficoll interface were recovered and washed twice with 5 volumes of PBS. The cells were resuspended in Yssel's medium (Gemini Bio-products, Woodland, CA, Catalog #400-103) containing 40 U/mL recombinant IL2 (R and D Systems, Minneapolis, MN, Catalog #202-IL (20 rig)) and seeded into a flask pre-coated with 1 μg/mL anti-CD3 (BD Pharmingen, San Diego, CA, Catalog #555336) and 5 μg/mL anti-CD28 (Immunotech, Beckman Coulter of Brea CA, Catalog #IM1376). The primary T-cells were stimulated for 3-4 days, then transferred to a fresh flask and maintained in RPMI with 10% FBS and 40 U/mL IL-2.
Primary T-cells were washed twice with PBS to remove the IL-2 and resuspended in Yssel's medium at 2×10^6 cells/mL. 50 μL of cell suspension containing 80 U/mL IL-2 was added to each well of a flat bottom 96 well black plate. For the unstimulated control, IL-2 was omitted from the last column on the plate. Compounds were serially diluted in dimethyl sulfoxide (DMSO, 99.7% pure, cell culture tested, Sigma-Aldrich, St. Louis, MO, Catalog No. D2650) from 5 mM in 3-fold dilutions, and then diluted 1:250 in Yssel's medium. 50 μL of 2× compound was added per well in duplicate and the cells were allowed to proliferate for 72 hours at 37° C.
Proliferation was measured using CellTiter-Glo® Luminescent Cell Viability Assay (Promega), which determines the number of viable cells in culture based on quantitation of the ATP present, as an indicator of metabolically active cells. The substrate was thawed and allowed to come to room temperature. After mixing the Cell Titer-Glo reagent and diluent together, 100 μL was added to each well. The plates were mixed on an orbital shaker for two minutes to induce lysis and incubated at room temperature for an additional ten minutes to allow the signal to equilibrate. Detection was performed using a Wallac Victor2 1420 multilabel counter purchased from Perkin Elmer, Shelton, CT The IC50 calculated based on the results of this assay are provided in TABLE XII.

[2] = Ramos B-cell line stimulated with IL-4, CD23 expression by FACS
[3] = primary human T-cell proliferation stimulated with IL-2
[4] = Ramos B cells stimulated with IL-4, CD23 expression by FACS
[5] = primary human T-cells stimulated with IL-2, proliferation
[6] = Homo sapiens, Ramos, Ramos B-cell line stimulated with IL-4, CD23 expression by FACS
[7] = Homo sapiens, T-cell, primary human T-cell proliferation stimulated with IL-2
[8] = Homo sapiens, Ramos, Ramos B cells stimulated with IL-4, CD23 expression by FACS
[9] = Homo sapiens, T-cell, primary human T-cells stimulated with IL-2, proliferation

- IC50 [1, 2]: 183 nM
Molecule: CCn1nccc1NC(=O)Cc1ccc(Nc2nc(Nc3ccc(C)c(S(N)(=O)=O)c3)ncc2F)cc1 [III-52, N2-(3-Aminosulfonyl-4-methylphenyl)-5-N4-[(1-ethylpyrazolyl-5-aminocarbonylmethylene)phenyl]-5-fluoro-2,4-pyrimidinediamine]
- IC50 (Primary human T-cells; [3]): 1200 nM

- IC50 [1, 4]: 133 nM
Molecule: N4-(4-Acetylthiomethylcarbonylphenyl)-N2-(4-aminosulfonylphenyl)-5-fluoro-2,4-pyrimidinediamine [IX-41]
- IC50 (Primary human T-cells; [5]): 6260 nM

- IC50 [1, 8]: 1660 nM
Molecule: CN1CCN(C(=O)c2ccc(Nc3nc(Nc4cccc(S(N)(=O)=O)c4)ncc3F)cc2)CC1 [IX-28, N2-(3-Aminosulfonylphenyl)-5-fluoro-N4-[4-(4-methylpiperazin-1-ylcarbonyl)phenyl]-2,4-pyrimidinediamine]
- IC50 (Primary human T-cells; [9]): 10100 nM

- IC50 [1, 8]: 374 nM
Molecule: Cc1ccc(Nc2ncc(F)c(Nc3ccc(C(C)(C)C)cc3)n2)cc1S(N)(=O)=O [VI-36, N2-(3-Aminosulfonyl-4-methylphenyl)-N4-(4-tert-butylphenyl)-5-fluoro-2,4-pyrimidinediamine]
- IC50 (Primary human T-cells; [9]): 4500 nM

- IC50 [1, 8]: 190 nM
Molecule: CN(C)S(=O)(=O)c1cccc(Nc2nc(Nc3cccc(S(N)(=O)=O)c3)ncc2F)c1 [IV-9, N2-(3-Aminosulfonylphenyl)-5-fluoro-N4-[3-(N,N-dimethylaminosulfonyl)phenyl]-2,4-pyrimidinediamine]
- IC50 (Primary human T-cells; [9]): 1000 nM

- IC50 [1, 6]: 293 nM
Molecule: C=CC(=O)NCc1ccc(Nc2nc(Nc3cccc(S(N)(=O)=O)c3)ncc2F)cc1 [III-45, N4-(4-Acrylamidomethylphenyl)-N2-(3-aminosulfonylphenyl)-5-fluoro-2,4-pyrimidinediamine]
- IC50 (Primary human T-cells; [7]): 384 nM

- IC50 [1, 8]: 313 nM
Molecule: Cc1ccc(Nc2ncc(F)c(N[C@H]3[C@@H](C(N)=O)[C@@H]4C=C[C@H]3C4)n2)cc1S(N)(=O)=O [VII-82, (1R,2R,3S,4S)N4-(3-Aminocarbonylbicyclo[2.2.1]hept-5-en-2-yl)-N2-(3-aminosulfonyl-4-methylphenyl)-5-fluoro-2,4-pyrimidinediamine]
- IC50 (Primary human T-cells; [9]): 1080 nM

- IC50 [1, 8]: 812 nM
Molecule: NS(=O)(=O)c1cccc(Nc2ncc(F)c(Nc3cccc4ncccc34)n2)c1 [VII-68, N2-(3-Aminosulfonylphenyl)-5-fluoro-N4-(quinolin-5-yl)-2,4-pyrimidinediamine]
- IC50 (Primary human T-cells; [9]): 1300 nM

- IC50 [1, 6]: 157 nM
Molecule: CN(C)C(=O)OCCc1ccc(Nc2nc(Nc3ccc(Cl)c(S(N)(=O)=O)c3)ncc2F)cc1 [III-58, N2-(3-Aminosulfonyl-4-chlorophenyl)-N4-{4-[2-(dimethylaminocarbonyloxy)ethyl]phenyl}-5-fluoro-2,4-pyrimidinediamine]
- IC50 (Primary human T-cells; [7]): 1260 nM

- IC50 [1, 4]: 144 nM
Molecule: Cc1ccc(Nc2ncc(F)c(Nc3ccc(OCC(F)(F)F)cc3)n2)cc1S(N)(=O)=O [VI-46, N2-(3-Aminosulfonyl-4-methylphenyl)-5-fluoro-N4-(4-trifluoromethylmethyleneoxyphenyl)-2,4-pyrimidinediamine]
- IC50 (Primary human T-cells; [5]): 1260 nM

- IC50 [1, 8]: 257 nM
Molecule: CNS(=O)(=O)c1cccc(Nc2nc(Nc3ccc(C)c(S(N)(=O)=O)c3)ncc2F)c1 [IV-12, N2-(3-Aminosulfonyl-4-methylphenyl)-5-fluoro-N4-[3-(N-methylaminosulfonyl)phenyl]-2,4-pyrimidinediamine]
- IC50 (Primary human T-cells; [9]): 1220 nM

- IC50 [1, 8]: 541 nM
Molecule: Cc1ccc(Nc2ncc(F)c(Nc3ccc(CCCO)cc3)n2)cc1S(N)(=O)=O [VI-87, N2-(3-Aminosulfonyl-4-methylphenyl)-5-fluoro-N4-[4-(3-hydroxypropyl)phenyl]-2,4-pyrimidinediamine]
- IC50 (Primary human T-cells; [9]): 1240 nM

- IC50 [1, 8]: 45 nM
Molecule: Cc1cnc(Nc2ccc(S(N)(=O)=O)cc2)nc1Nc1ccc2c(c1)N(C)C(=O)CS2 [VII-34, N2-(4-Aminosulphonylphenyl)-5-methyl-N4-(4-methyl-3-oxo-benzo[1,4]thiazin-6-yl)-2,4-pyrimidinediamine]
- IC50 (Primary human T-cells; [9]): 22.5 nM

Continued, molecule first:

Molecule: CNS(=O)(=O)c1cc(Nc2ncc(F)c(Nc3ccc(Oc4ccncc4)cc3)n2)ccc1C [II-18, 5-Fluoro-N2-[3-(N-methylaminosulfony)-4-methylphenyl]-5-fluoro-N4-[4-(4-pyridyloxy)phenyl]-2,4-pyrimidinediamine]
- IC50 [1, 2]: 2040 nM
- IC50 (Primary human T-cells; [3]): 3310 nM

Molecule: Cc1ccc(Nc2ncc(F)c(Nc3ccc(Oc4ccncc4)cc3)n2)cc1S(N)(=O)=O [II-16, N2-(3-Aminosulfonyl-4-methylphenyl)-5-fluoro-N4-[4-(4-pyridyloxy)phenyl]-2,4-pyrimidinediamine]
- IC50 [1, 6]: 18300 nM
- IC50 (Primary human T-cells; [7]): 3720 nM

Molecule: NS(=O)(=O)c1cccc(Nc2ncc(F)c(Nc3ccc(OCc4ccccn4)cc3)n2)c1 [Compound I-162, N2-(3-Aminosulfonylphenyl)-5-fluoro-N4-[4-(2-pyridinyl)methyleneoxyphenyl]-2,4-pyrimidinediamine]
- IC50 [1, 2]: 51 nM
- IC50 (Primary human T-cells; [3]): 136 nM

Molecule: Cc1ccc(Nc2ncc(F)c(Nc3ccc(OCC(=O)N(C)C)cc3)n2)cc1S(N)(=O)=O [Compound I-130, N2-(3-Aminosulfonyl-4-methylphenyl)-N4-(4-dimethylaminocarbonylmethoxyphenyl)-5-fluoro-2,4-pyrimidinediamine]
- IC50 [1, 6]: 601 nM
- IC50 (Primary human T-cells; [7]): 1730 nM

Molecule: N2-(3-Aminosulfonyl-4-chlorophenyl)-N4-(4-benzylphenyl)-5-fluoro-2,4-pyrimidinediamine [III-64]
- IC50 [1, 2]: 447 nM
- IC50 (Primary human T-cells; [3]): 5960 nM

Molecule: Cc1cc(COc2ccc(Nc3nc(Nc4ccc(C)c(S(N)(=O)=O)c4)ncc3F)cn2)no1 [Compound V-1, N2-(3-Aminosulfonyl-4-methylphenyl)-5-fluoro-N4-[2-(5-methylisoxazol-3-yl)methyleneoxypyridin-5-yl]-2,4-pyrimidinediamine]
- IC50 [1, 4]: 2000 nM
- IC50 (Primary human T-cells; [5]): 9770 nM

Molecule: Cc1ccc(Nc2ncc(F)c(Nc3ccc(OCC(=O)N(C)C)c(Cl)c3)n2)cc1S(N)(=O)=O [Compound I-133, N2-(3-Aminosulfonyl-4-methylphenyl)-N4-(3-chloro-4-dimethylaminocarbonylmethoxyphenyl)-5-fluoro-2,4-pyrimidinediamine]
- IC50 [1, 6]: 237 nM
- IC50 (Primary human T-cells; [7]): 1350 nM

Molecule: Cc1cc(COc2ccc(Nc3nc(Nc4ccc(S(N)(=O)=O)cc4)ncc3F)cc2C)no1 [Compound I-240, N2-(4-Aminosulfonylphenyl)-5-fluoro-N4-[3methyl-4-(5-methylisoxazol-3-yl)methyleneoxyphenyl]-2,4-pyrimidinediamine]
- IC50 [1, 2]: 205 nM
- IC50 (Primary human T-cells; [3]): 5260 nM

Molecule: CNS(=O)(=O)c1cc(Nc2ncc(F)c(Nc3ccc(OCc4ccncc4)cc3)n2)ccc1C [Compound I-195, 5-Fluoro-N2-[3-(N-methylaminosulfony)-4-methylphenyl]-5-fluoro-N4-[4-(4-pyridinyl)methyleneoxyphenyl]-2,4-pyrimidinediamine]
- IC50 [1, 2]: 82.6 nM
- IC50 (Primary human T-cells; [3]): 127 nM

Molecule: N#CCOc1ccc(Nc2nc(Nc3ccc(S(N)(=O)=O)cc3)ncc2F)cc1 [Compound I-16, N2-(4-Aminosulfonyl)phenyl-N4-(4-cyanomethoxy)phenyl-5-fluoro-2,4-pyrimidinediamine]
- IC50 [1, 2]: 124 nM
- IC50 (Primary human T-cells; [3]): 436 nM

Molecule: N#Cc1cc2cc(Nc3nc(Nc4ccc(Cl)c(S(N)(=O)=O)c4)ncc3F)ccc2o1 [IX-21]
- IC50 [1, 4]: 271 nM
- IC50 (Primary human T-cells; [5]): 2740 nM
